Article PMC5424463, “A strategy based on nucleotide specificity leads to a subfamily-selective and cell-active inhibitor of N ^6-methyladenosine demethylase FTO” (Chemical Science, 2014)

Target: T1, PHD2 (Homo sapiens, UniProt Q9GZT9)
T1 construct: Full length human PHD2 (fused to a MYC/DDK tag at C-terminal); purchased Origene Technology, USA
Test: MALDI-based inhibition assay for PHD2
Type: biochemical
Conditions: 19-mer peptide substrate
Protocol: IC50s were then calculated from the variation in percentage demethylation at different inhibitor concentrations, using nonlinear regression, with normalized dose-response fit on […]
MALDI-based inhibition assays for FTO and ALKBH5
The assay was modified from previously reported method.[5] An 8-mer m6A-ssDNA substrate with the sequence 5’-TCA(m6A)CAGC-3’ (Yale University, W.M. Keck Foundation Biotechnology Resource Laboratory) was used in this inhibition assay. The assay was performed in triplicate for each inhibitor, in a final reaction volume of 25 µL. Reaction consisted of FTO (2 µM) or ALKBH5 (4 µM), 2OG (150 µM), (NH4)2Fe(SO4)2·6H2O (150 µM), L-ascorbate (2 mM), m6A-ssDNA substrate (100 µM), in 50 mM HEPES buffer, pH 7.5, and inhibitor at various concentrations (final DMSO concentration not more than 1% v/v of assay mix). The reaction was incubated at room temperature for 30 min, before 1:1 quenching with 20% v/v formic acid. 1 uL of the diluted assay mixture was then mixed with 1 uL of 3-hydroxpicolinic acid (3-HPA, the MALDI-TOF-MS matrix, Sigma-Aldrich) and spotted onto the MALDI-TOF-MS plate before analysis. The 3-HPA matrix was prepared by mixing 9 parts of 50 mg/mL 3-hydroxpicolinic acid in 50% MeCN/Milli-Q H2O with 1 part of 50 mg/mL ammonium citrate in Milli-Q H2O. […]

T1 sequence (Q9GZT9 whole entry, the tested form may be a part): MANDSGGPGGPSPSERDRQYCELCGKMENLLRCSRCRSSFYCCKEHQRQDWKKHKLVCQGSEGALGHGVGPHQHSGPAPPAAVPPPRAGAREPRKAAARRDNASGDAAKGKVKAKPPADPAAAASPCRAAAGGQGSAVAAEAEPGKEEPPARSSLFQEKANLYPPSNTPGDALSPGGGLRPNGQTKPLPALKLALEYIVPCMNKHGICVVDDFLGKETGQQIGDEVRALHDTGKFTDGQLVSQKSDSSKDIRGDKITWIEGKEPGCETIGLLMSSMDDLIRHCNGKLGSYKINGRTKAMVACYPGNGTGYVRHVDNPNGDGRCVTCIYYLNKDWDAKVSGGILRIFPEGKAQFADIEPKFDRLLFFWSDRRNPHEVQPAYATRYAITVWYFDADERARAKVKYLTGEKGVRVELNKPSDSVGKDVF

## O=C(O)/C=C/C(=O)NNC(=O)c1cnccc1Cc1ccccc1 [Compound 12]
  IC50: > 100 µM
